Source: patent publication US20240228458A1, “PYRIMIDINE DERIVATIVE HAVING PROTEIN KINASE INHIBITORY ACTIVITY, AND THERAPEUTIC PHARMACEUTICAL COMPOSITION COMPRISING SAME” (THERAPEX CO., LTD., priority 2021, published 2024)

Legend:
Format in all cases: cell-based
[1] = test system: Ba/F3 cells expressing EGFR-wt; assay: Growth inhibition (GI50) of Ba/F3 cells expressing EGFR-wt, Celltiter glo; details: Mus musculus, BaF3, 72 h
How it was run: (§1)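 Steps: plate engineered Ba/F3 cells (100,000 cells/ml); wait 4 h; add compound as a 4-fold, 10-point dilution series made from 2 mM stock, DMSO 0.5%; incubate 72 h at 37 °C under 5% CO2; measure ATP-based viability with CellTiter-Glo; calculate GI50.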

[2] = test system: Ba/F3 cells expressing del19/T790M/C797S (EGFR-DTC); assay: Growth inhibition (GI50) of Ba/F3 cells expressing del19/T790M/C797S (EGFR-DTC), Celltiter glo; details: Mus musculus, BaF3, 72 h
How it was run: as §1

[3] = test system: Ba/F3 cells expressing L858R/T790M/C797S (EGFR-LTC); assay: Growth inhibition (GI50) of Ba/F3 cells expressing L858R/T790M/C797S (EGFR-LTC), Celltiter glo; details: Mus musculus, BaF3, 72 h
How it was run: as §1

[4] = test system: parental Ba/F3 cell line; assay: Growth inhibition (GI50) of the parental Ba/F3 cell line (not introduced with EGFR variants), Celltiter glo; details: Mus musculus, BaF3, 72 h, parental Ba/F3 cells
How it was run: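 Parental Ba/F3 cells (100,000 cells/ml) were treated with 10-point, 4-fold compound dilutions (0.5% DMSO; top stock 2 mM) for 72 h at 37 °C, 5% CO2. Viability was read by CellTiter-Glo; GI50 is the concentration (μM) giving 50% growth inhibition.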

Row | GI50 [1] | GI50 [2] | GI50 [3] | Compound | GI50 [4]
1 | 0.5 to 2 µM | 0.025 to 0.1 µM | 0.1 to 0.5 µM | COc1nc(N2CCC(N3CCN(C)CC3)CC2)c(C)cc1Nc1ncc(Cl)c(Nc2ccc3ncccc3c2NS(C)(=O)=O)n1 [Example 116, N-(6-((5-chloro-2-((2-methoxy-5-methyl-6-(4-(4-methylpiperazin-1-yl)piperidin-1-yl)pyridin-3-yl)amino)pyrimidin-4-yl)amino)quinolin-5-yl)methanesulfonamide] | 2 to 10 µM
2 | 0.5 to 2 µM | 0.5 to 2 µM | 0.5 to 2 µM | COc1nc(N2CCC(N3CCOCC3)CC2)ccc1Nc1ncc(Cl)c(Nc2ccc3ncccc3c2NS(C)(=O)=O)n1 [Example 117, N-(6-((5-chloro-2-((2-methoxy-6-(4-morpholinopiperidin-1-yl)pyridin-3-yl)amino)pyrimidin-4-yl)amino)quinolin-5-yl)methanesulfonamide] | 2 to 10 µM
3 | 0.5 to 2 µM | 0.1 to 0.5 µM | 0.1 to 0.5 µM | COc1cc(N2CCC(N3CCN(C)CC3)CC2)c(Cl)cc1Nc1ncc(Cl)c(Nc2ccc3ncccc3c2NS(C)(=O)=O)n1 [Example 118] | > 10 µM
4 | 0.5 to 2 µM | 0.5 to 2 µM | 0.5 to 2 µM | COc1cc(N2CCN(C)CC2)ccc1Nc1ncc(Cl)c(Nc2ccc3ncccc3c2NS(C)(=O)=O)n1 [Example 119, N-(6-((5-chloro-2-((2-methoxy-4-(4-methylpiperazin-1-yl)phenyl)amino)pyrimidin-4-yl)amino)quinolin-5-yl)methanesulfonamide] | 2 to 10 µM
5 | 2 to 10 µM | 2 to 10 µM | 2 to 10 µM | COc1cc(N2CCC(N3CCN(C)CC3)CC2)c(C)cc1Nc1ncc(Cl)c(N(C)c2ccccc2NS(C)(=O)=O)n1 [Example 120, N-(2-((5-chloro-2-((2-methoxy-5-methyl-4-(4-(4-methylpiperazin-1-yl)piperidin-1-yl)phenyl)amino)pyrimidin-4-yl)(methyl)amino)phenyl)methanesulfonamide] | > 10 µM

The remaining lines, values behind:

Row | Compound | GI50 [1] | GI50 [2] | GI50 [3] | GI50 [4]
6 | COc1cc(N2CCC(N3CCN(C)CC3)CC2)c(C)cc1Nc1ncc(Cl)c(N(c2ccc3scnc3c2NS(C)(=O)=O)S(C)(=O)=O)n1 [Example 110, N-(5-chloro-2-((2-methoxy-5-methyl-4-(4-(4-methylpiperazin-1-yl)piperidin-1-yl)phenyl)amino)pyrimidin-4-yl)-N-(4-(methylsulfonamido)benzo[d]thiazol-5-yl)methanesulfonamide] | 0.1 to 0.5 µM | 0.1 to 0.5 µM | 0.025 to 0.1 µM | 0.5 to 2 µM
7 | CN1CCN(C2CCN(c3ccc(Nc4ncc(Cl)c(N(c5ccc6scnc6c5NS(C)(=O)=O)S(C)(=O)=O)n4)cc3F)CC2)CC1 [Example 112, N-(5-chloro-2-((3-fluoro-4-(4-(4-methylpiperazin-1-yl)piperidin-1-yl)phenyl)amino)pyrimidin-4-yl)-N-(4-(methylsulfonamido)benzo[d]thiazol-5-yl)methanesulfonamide] | 0.1 to 0.5 µM | 0.025 to 0.1 µM | 0.025 to 0.1 µM | 0.1 to 0.5 µM
8 | CN1CCN(C2CCN(c3ncc(Nc4ncc(Cl)c(N(c5ccc6scnc6c5NS(C)(=O)=O)S(C)(=O)=O)n4)cc3F)CC2)CC1 [Example 113, N-(5-chloro-2-((5-fluoro-6-(4-(4-methylpiperazin-1-yl)piperidin-1-yl)pyridin-3-yl)amino)pyrimidin-4-yl)-N-(4-(methylsulfonamido)benzo[d]thiazol-5-yl)methanesulfonamide] | 2 to 10 µM | 0.5 to 2 µM | 0.5 to 2 µM | 2 to 10 µM
9 | COc1cc(N2CCC(N3CCN(C)CC3)CC2)c(Cl)cc1Nc1ncc(Cl)c(N(c2ccc3scnc3c2NS(C)(=O)=O)S(C)(=O)=O)n1 [Example 114, N-(5-chloro-2-((5-chloro-2-methoxy-4-(4-(4-methylpiperazin-1-yl)piperidin-1-yl)phenyl)amino)pyrimidin-4-yl)-N-(4-(methylsulfonamido)benzo[d]thiazol-5-yl)methanesulfonamide] | 0.5 to 2 µM | 0.1 to 0.5 µM | 0.1 to 0.5 µM | 0.5 to 2 µM
